Values quoted from earlier work in patent publication US12357614B2, “L-ergothioneine-containing composition” (NAGASE & CO., LTD., priority 2020, dated 2025).

Legend:
OT-II CD4^+ T cells = conditions: 30 mM EGT, co-culture with F4/80 macrophages
Escherichia coli = conditions: EGT at 5 mM and 50 mM
[1] = system: mouse bone marrow-derived macrophages; conditions: 10 mM EGT, toll-like receptor ligand stimulation

## C[N+](C)(C)[C@@H](Cc1c[nH]c(=S)[nH]1)C(=O)[O-] [EGT, N,N,N-trimethyl-L-2-thiohistidine]
OT-II CD4^+ T cells
  Th17 polarization of OT-II CD4^+ T cells: promoted
Escherichia coli
  growth of Escherichia coli: suppresses the growth of Escherichia coli
[1]
  production of cytokines (IL-6, IL-12p40, IL-1β, IL-10): promoted
